Measurements from PubChem BioAssay AID1845202 (Molecular Pharmacology Branch, DTP, NCI, 2023).

Tested on: DMS 114 tumor spheroids, viability % test/control
Assay: Anticancer human tumor DMS 114 cell line growth inhibition;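 note: spheroids exposed to compounds for 7 days before read-out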;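 for viability, T/C: luminescence used as a proxy for viable cells; 100% = DMSO vehicle control viability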
Settings: spheroids with HUVEC and MSC; for IC50: curve of first compound; for viability, T/C: stronger effect = lower value
Method in brief: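 Complex tumor spheroids combined malignant cells with endothelial cells and mesenchymal stem cells. DNA-damaging drugs and DNA repair inhibitors were tested alone and in combination, at half-log dilutions down from clinical Cmax (top 10 microM if Cmax unknown), 0.25% DMSO final.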

[1] = second compound 0.003 µM, first compound 0.0316 µM
[2] = second compound 0.003 µM, first compound 0.1 µM
[3] = second compound 0.003 µM, first compound 0.316 µM
[4] = second compound 0.003 µM, first compound 1 µM
[5] = second compound 0.003 µM, first compound 3.16 µM
[6] = second compound 0.003 µM, first compound 10 µM

Cc1cc(C)c(CNC(=O)c2cc(-c3ccc(CN4CCOCC4)cc3)cc3c2cnn3C2CCCC2)c(=O)[nH]1 + COc1cc2c(cc1O)CCNC21CSC2c3c(OC(C)=O)c(C)c4c(c3C(COC1=O)N1C(O)C3Cc5cc(C)c(OC)c(O)c5C(C21)N3C)OCO4
IC50 (second compound 30 pM): > 10000 nM | IC50 (second compound 94.9 pM): > 10000 nM | IC50 (second compound 0.0003 µM): < 31.6 nM | IC50 (second compound 0.000949 µM): < 31.6 nM | IC50 (second compound 0.003 µM): < 31.6 nM | viability, T/C (second compound 30 pM, first compound 0.0316 µM): 112% | viability, T/C (second compound 30 pM, first compound 0.1 µM): 100% | viability, T/C (second compound 30 pM, first compound 0.316 µM): 104% | viability, T/C (second compound 30 pM, first compound 1 µM): 113% | viability, T/C (second compound 30 pM, first compound 3.16 µM): 115% | viability, T/C (second compound 30 pM, first compound 10 µM): 73.2% | viability, T/C (second compound 94.9 pM, first compound 0.0316 µM): 113% | viability, T/C (second compound 94.9 pM, first compound 0.1 µM): 108% | viability, T/C (second compound 94.9 pM, first compound 0.316 µM): 112% | viability, T/C (second compound 94.9 pM, first compound 1 µM): 102% | viability, T/C (second compound 94.9 pM, first compound 3.16 µM): 98.6% | viability, T/C (second compound 94.9 pM, first compound 10 µM): 52.1% | viability, T/C (second compound 0.0003 µM, first compound 0.0316 µM): 40.1% | viability, T/C (second compound 0.0003 µM, first compound 0.1 µM): 35.8% | viability, T/C (second compound 0.0003 µM, first compound 0.316 µM): 48.1% | viability, T/C (second compound 0.0003 µM, first compound 1 µM): 38.8% | viability, T/C (second compound 0.0003 µM, first compound 3.16 µM): 41.4% | viability, T/C (second compound 0.0003 µM, first compound 10 µM): 35.6% | viability, T/C (second compound 0.000949 µM, first compound 0.0316 µM): 2.74% | viability, T/C (second compound 0.000949 µM, first compound 0.1 µM): 3.63% | viability, T/C (second compound 0.000949 µM, first compound 0.316 µM): 3.61% | viability, T/C (second compound 0.000949 µM, first compound 1 µM): 3.83% | viability, T/C (second compound 0.000949 µM, first compound 3.16 µM): 3.94% | viability, T/C (second compound 0.000949 µM, first compound 10 µM): 4.03% | viability, T/C [1]: 0.31% | viability, T/C [2]: 0.33% | viability, T/C [3]: 0.32% | viability, T/C [4]: 0.44% | viability, T/C [5]: 0.34% | viability, T/C [6]: 0.4%

Cc1sc2c(c1C)C(c1ccc(Cl)cc1)=NC(CC(=O)Nc1ccc(O)cc1)c1nnc(C)n1-2 (stereo not given) + CC[C@@]1(O)C(=O)OCc2c1cc1n(c2=O)Cc2cc3c(CN(C)C)c(O)ccc3nc2-1
IC50 (second compound 0.003 µM): 89.3 nM | IC50 (second compound 0.00949 µM): 56.4 nM | IC50 (second compound 0.03 µM): < 9.49 nM | IC50 (second compound 0.0949 µM): < 9.49 nM | IC50 (second compound 0.3 µM): < 9.49 nM | viability, T/C (second compound 0.003 µM, first compound 0.00949 µM): 96.7% | viability, T/C (second compound 0.003 µM, first compound 0.03 µM): 97.2% | viability, T/C (second compound 0.003 µM, first compound 0.0949 µM): 45.5% | viability, T/C (second compound 0.003 µM, first compound 0.3 µM): 18.9% | viability, T/C (second compound 0.003 µM, first compound 0.949 µM): 7.67% | viability, T/C (second compound 0.003 µM, first compound 3 µM): 4.78% | viability, T/C (second compound 0.00949 µM, first compound 0.00949 µM): 85% | viability, T/C (second compound 0.00949 µM, first compound 0.03 µM): 67.4% | viability, T/C (second compound 0.00949 µM, first compound 0.0949 µM): 35.9% | viability, T/C (second compound 0.00949 µM, first compound 0.3 µM): 12.1% | viability, T/C (second compound 0.00949 µM, first compound 0.949 µM): 5.26% | viability, T/C (second compound 0.00949 µM, first compound 3 µM): 3.47% | viability, T/C (second compound 0.03 µM, first compound 0.00949 µM): 24.8% | viability, T/C (second compound 0.03 µM, first compound 0.03 µM): 19.4% | viability, T/C (second compound 0.03 µM, first compound 0.0949 µM): 13.1% | viability, T/C (second compound 0.03 µM, first compound 0.3 µM): 8.01% | viability, T/C (second compound 0.03 µM, first compound 0.949 µM): 3.14% | viability, T/C (second compound 0.03 µM, first compound 3 µM): 1.45% | viability, T/C (second compound 0.0949 µM, first compound 0.00949 µM): 11.7% | viability, T/C (second compound 0.0949 µM, first compound 0.03 µM): 9.99% | viability, T/C (second compound 0.0949 µM, first compound 0.0949 µM): 5.31% | viability, T/C (second compound 0.0949 µM, first compound 0.3 µM): 2.68% | viability, T/C (second compound 0.0949 µM, first compound 0.949 µM): 1.52% | viability, T/C (second compound 0.0949 µM, first compound 3 µM): 0.93% | viability, T/C (second compound 0.3 µM, first compound 0.00949 µM): 5.77% | viability, T/C (second compound 0.3 µM, first compound 0.03 µM): 4.7% | viability, T/C (second compound 0.3 µM, first compound 0.0949 µM): 3.42% | viability, T/C (second compound 0.3 µM, first compound 0.3 µM): 1.6% | viability, T/C (second compound 0.3 µM, first compound 0.949 µM): 0.9% | viability, T/C (second compound 0.3 µM, first compound 3 µM): 0.73%

COc1cc(C)[nH]c(=O)c1CN1CCc2c(Cl)cc(C(OC)C3COC3)c(Cl)c2C1=O (stereo not given) + CC[C@@]1(O)C(=O)OCc2c1cc1n(c2=O)Cc2cc3c(CN(C)C)c(O)ccc3nc2-1
IC50 (second compound 0.003 µM): > 10000 nM | IC50 (second compound 0.00949 µM): 1920 nM | IC50 (second compound 0.03 µM): < 31.6 nM | IC50 (second compound 0.0949 µM): < 31.6 nM | IC50 (second compound 0.3 µM): < 31.6 nM | viability, T/C [1]: 103% | viability, T/C [2]: 88.5% | viability, T/C [3]: 83.4% | viability, T/C [4]: 77% | viability, T/C [5]: 66% | viability, T/C [6]: 61.2% | viability, T/C (second compound 0.00949 µM, first compound 0.0316 µM): 88.3% | viability, T/C (second compound 0.00949 µM, first compound 0.1 µM): 74.2% | viability, T/C (second compound 0.00949 µM, first compound 0.316 µM): 64.1% | viability, T/C (second compound 0.00949 µM, first compound 1 µM): 57.5% | viability, T/C (second compound 0.00949 µM, first compound 3.16 µM): 49.3% | viability, T/C (second compound 0.00949 µM, first compound 10 µM): 32.1% | viability, T/C (second compound 0.03 µM, first compound 0.0316 µM): 39.2% | viability, T/C (second compound 0.03 µM, first compound 0.1 µM): 34% | viability, T/C (second compound 0.03 µM, first compound 0.316 µM): 32.1% | viability, T/C (second compound 0.03 µM, first compound 1 µM): 30.6% | viability, T/C (second compound 0.03 µM, first compound 3.16 µM): 24.4% | viability, T/C (second compound 0.03 µM, first compound 10 µM): 18.5% | viability, T/C (second compound 0.0949 µM, first compound 0.0316 µM): 16.8% | viability, T/C (second compound 0.0949 µM, first compound 0.1 µM): 16.3% | viability, T/C (second compound 0.0949 µM, first compound 0.316 µM): 18.4% | viability, T/C (second compound 0.0949 µM, first compound 1 µM): 17.1% | viability, T/C (second compound 0.0949 µM, first compound 3.16 µM): 15.2% | viability, T/C (second compound 0.0949 µM, first compound 10 µM): 12% | viability, T/C (second compound 0.3 µM, first compound 0.0316 µM): 10.3% | viability, T/C (second compound 0.3 µM, first compound 0.1 µM): 11.2% | viability, T/C (second compound 0.3 µM, first compound 0.316 µM): 10.6% | viability, T/C (second compound 0.3 µM, first compound 1 µM): 11.4% | viability, T/C (second compound 0.3 µM, first compound 3.16 µM): 11.1% | viability, T/C (second compound 0.3 µM, first compound 10 µM): 10.7%
